Test results published in paper PMC7802074, “Azanitrile Inhibitors of the SmCB1 Protease Target Are Lethal to Schistosoma mansoni: Structural and Mechanistic Insights into Chemotype Reactivity” (ACS Infectious Diseases, 2020).
Where “and” joins values, the source holds several entries; their conditions need not be identical. Identical values can stand only once. Like-named read-outs stand apart in the source and are kept apart here.

Legend:
[1] = Cytotoxicity, XTT test, HepG2; format: cell-based; conditions: human, % viability vs. untreated cells, read-out: Cell line viability after 72 h; for viability at 72 h, 1 µM: HepG2, 1 µM; for viability at 72 h, 10 µM: HepG2, 10 µM
Procedure: (§1) T able S4. […]
(§2) Cell line viability after 72 h (%)a
(§3) Inhibitor 1 µM 10 µM 1 µM 10 µM
(§4) aCytotoxicity of the inhibitors towards human cell lines are expressed as % viability vs. untreated cells. Cells were treated with
(§5) the indicated concentration of the compounds for 72 h and assayed by means of the XTT test (as described previously 12).
(§6) Standard deviation values were within 10% of the mean of tetraplicates. […]

[2] = target: recombinant SmCB1 (Schistosoma mansoni, UniProt Q8MNY2, T185A/T300A); experiment: SmCB1 kinetic inhibition assay with fluorogenic substrate Cbz-Phe-Arg-AMC; format: biochemical; conditions: substrate Cbz-Phe-Arg-AMC; for SmCB1 inhibition k2nd (second-order rate constant): slow-binding azadipeptide nitriles
Procedure: Inhibition measurements were performed in triplicates in 96-well microplates (100 μL assay volume) at 37 °C. SmCB1 (20–40 pM) was added to a mixture of the fluorogenic substrate Cbz-Phe-Arg-AMC (20 μM) and an inhibitor (0–100 μM) in 0.1 M sodium acetate, pH 5.5, containing 2.5 mM dithiothreitol and 0.1% PEG 6000. The substrate hydrolysis was monitored in an Infinite M1000 microplate reader (Tecan, Männedorf, Switzerland) at excitation and emission wavelengths of 360 and 465 nm, respectively, for up to 15 and 60 min for fast- and slow-binding inhibitors, respectively. […] For slow-binding inhibitors, an observed first-order rate constant kobs was calculated at each inhibitor concentration by fitting the progress curve to the equation P = vst + (vi – vs)(1 – […])/kobs + d, where P is the product formation, vs is the steady-state velocity, t is the reaction time, vi is the initial velocity, and d is the offset. The inhibition constant Ki′ was determined by nonlinear regression using the equation vs/v0 = 1/(1 + [I]/Ki′). The true inhibition constants Ki were then calculated using the equation Ki = Ki′/(1 + [S]/Km), where [S] is the substrate concentration and Km is the Michaelis constant. The apparent second-order rate constant k2nd′ was determined by fitting to the linear equation kobs = k2nd′[I] + koff, where koff is the first-order rate constants for the dissociation of the enzyme–inhibitor complex and the true constant k2nd was calculated by the correction k2nd = k2nd′(1 + [S]/Km). […] In none of the assay systems did the final concentration of DMSO exceed 1.5%.

[3] = Cytotoxicity, XTT test, HUVEC; format: cell-based; conditions: human, % viability vs. untreated cells, read-out: Cell line viability after 72 h
Procedure: as §1, §2, §3, §4, §5, §6

[4] = system: S. mansoni newly transformed schistosomula (NTS); experiment: Schistosome phenotypic assay; format: cell-based, Schistosoma mansoni; conditions: for Descriptors Day 1 (phenotypic changes) / Descriptors Day 2 (phenotypic changes) / Descriptors Day 3 (phenotypic changes) / Descriptors Day 4 (phenotypic changes): 10 µM inhibitor; for Severity score Day 1 / Severity score Day 2 / Severity score Day 3 / Severity score Day 4: 10 μM inhibitor, scale 0 (no effect) to 4 (severe); for Severity score Day 1: 24 h; for Severity score Day 2: 48 h
Procedure: Newly transformed schistosomula (NTS) of S. mansoni were prepared by mechanically transforming infective larvae (cercariae) as described previously.[70],[71] NTS (200–300 parasites) were incubated in 200 μL of Basch Medium 169 containing 5% FBS, 100 U mL^–1 penicillin, and 100 μg mL^–1 streptomycin at 5% CO2 and 37 °C.[70],[72],[73] Inhibitors were added at the final concentration of 10 μM,[20],[69] and changes in phenotypes were observed every 24 h for up to 4 days. A constrained nomenclature of “descriptors” is used to record the multiple and dynamic changes in movement, shape, and translucence of which the schistosome parasite is capable (Table S3).[70] These descriptors are then converted into an ordinal “severity score” system from 0 (no effect) to 4 (maximum effect), which allows for the relative comparison of compound effects, as described.[74],[75] Images of NTS were captured using a Zeiss Axiovert 40 C inverted microscope (10× objective) and a Zeiss AxioCam MRc digital camera controlled by AxioVision 40 (v. 4.8.1.0) software.

[5] = SmCB1 inhibition Ki, kinetic activity assay, pH 5.5, 37 °C
[6] = SmCB1 inhibition Ki, Table S2, carbadipeptide nitriles
[7] = Table S2, carbadipeptide nitriles, read-out: SmCB1 inhibition Ki

recombinant SmCB1, sequence (Q8MNY2 87-340 T185A/T300A): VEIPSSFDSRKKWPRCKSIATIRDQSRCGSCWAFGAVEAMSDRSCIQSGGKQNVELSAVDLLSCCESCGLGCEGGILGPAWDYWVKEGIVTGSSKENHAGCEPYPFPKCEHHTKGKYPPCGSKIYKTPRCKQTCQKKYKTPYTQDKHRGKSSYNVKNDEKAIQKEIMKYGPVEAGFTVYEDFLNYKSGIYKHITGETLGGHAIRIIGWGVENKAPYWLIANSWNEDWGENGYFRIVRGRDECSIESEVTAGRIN

| SMILES | viability at 72 h, 1 µM [1] [%] | viability at 72 h, 10 µM [1] [%] | Ki [2, 5] [µM] | SmCB1 inhibition k2nd (second-order rate constant) [2] | viability at 72 h, 1 µM [3] [%] | viability at 72 h, 10 µM [3] [%] | Descriptors Day 1 (phenotypic changes) [4] | Descriptors Day 2 (phenotypic changes) [4] | Severity score Day 1 [4] | Severity score Day 2 [4] | Severity score Day 3 [4] | Severity score Day 4 [4] | Ki [2, 6] [µM] | Descriptors Day 3 (phenotypic changes) [4] | Descriptors Day 4 (phenotypic changes) [4] | Ki [2, 7] [µM] |
| --- | --- | --- | --- | --- | --- | --- | --- | --- | --- | --- | --- | --- | --- | --- | --- | --- |
| CC(C)CC(NC(=O)NCc1ccccc1)C(=O)N(C)N(C)C#N (centres unmarked) [Compound 3a] | 82 | 83 | 0.0061 ± 0.0007 | 20.4 10^3 M^-1 s^-1 and 20.4 ± 1.9 10^3 M^-1 s^-1 | 106 | 90 | R, Unc, Dark | Deg | 3 | 4 | 4 | 4 | – | – | – | – |
| CC(C)C[C@H](NC(=O)c1ccc(-c2noc(-c3cccs3)n2)cc1)C(=O)N(C)N(C)C#N [Compound 5a] | 91 | 101 | 0.0048 ± 0.0003 | 29.0 10^3 M^-1 s^-1 and 29.0 ±1.4 10^3 M^-1 s^-1 | 91 | 66 | Deg | Deg | 2 | 4 | 4 | 4 | – | – | – | – |
| CN(C(=O)[C@H](Cc1ccccc1)NC(=O)OCc1ccccc1)N(C#N)CCc1ccccc1 [Compound 8a] | 102 | 83 | 0.0048 ± 0.0002 | 5.2 10^3 M^-1 s^-1 and 5.2 ± 0.4 10^3 M^-1 s^-1 | 101 | 44 | Deg | – | 4 and 4/4 | 4 and 4/4 | 4 | 4 | – | – | – | – |
| CN(CC#N)C(=O)[C@H](Cc1ccccc1)NC(=O)OCc1ccccc1 [Compound 9c] | – | – | > 100 | – | – | – | – | – | 0 | 0 | 0 | 0 | > 10 | – | – | – |
| CN(C(=O)[C@H](Cc1ccccc1)NC(=O)OCc1ccccc1)N(C#N)Cc1ccccc1 [Compound 10a] | – | – | 0.0489 ± 0.0047 | 1.5 ± 0.1 10^3 M^-1 s^-1 | – | – | R, Unc | Deg | 2 | 4 | 4 | 4 | – | – | – | – |
| C[C@@H](C#N)N(C)C(=O)[C@H](Cc1ccccc1)NC(=O)OCc1ccccc1 [Compound 10c] | – | – | > 100 | – | – | – | – | – | 0 | 0 | 0 | 0 | > 10 | – | – | – |
| CCC(C)C(NC(=O)OCc1ccccc1)C(=O)N(C)N(C)C#N (centres unmarked) [Compound 12a] | – | – | 0.0717 ± 0.0044 | – | – | – | Deg | – | 4 and 4/4 | 4 and 4/4 | 4 | 4 | – | – | – | – |
| COc1ccc(C[C@H](NC(=O)OCc2ccccc2)C(=O)N(C)N(C)C#N)cc1 [Compound 13a] | – | – | 0.0806 ± 0.0071 | – | – | – | Deg | Deg | 4 and 4/4 | 4 and 4/4 | 4 | 4 | – | – | – | – |
| CC(C)[C@H](NC(=O)OCc1ccccc1)C(=O)N(C)N(C)C#N [Compound 14a] | – | – | 0.0883 ± 0.0104 | – | – | – | R, Unc, Dark | Deg | 3 | 4 | 4 | 4 | – | – | – | – |
| C[C@H](NC(=O)OCc1ccccc1)C(=O)N(C)N(C)C#N [Compound 15a] | – | – | 0.714 ± 0.058 | – | – | – | R, Unc | Deg | 2 | 4 | 4 | 4 | – | – | – | – |
| Cc1nc(-c2ccc(CNC(=O)N[C@@H](CC(C)C)C(=O)N(C)N(C)C#N)cc2)no1 [Compound 16a] | – | – | 0.03 ± 0.0041 | 9.2 ± 0.8 10^3 M^-1 s^-1 | – | – | – | R, Unc | 0 | 2 | 3 | 4 | – | R, Unc, Dark | Deg | – |
| CC(C)C[C@H](NC(=O)NCc1ccc(-c2noc(-c3cccs3)n2)cc1)C(=O)N(C)N(C)C#N [Compound 17a] | – | – | 0.0583 ± 0.0028 | 3.1 ± 0.6 10^3 M^-1 s^-1 | – | – | – | – | 0 and 0/0 | 0 and 0/0 | 0 | 0 | – | – | – | – |
| CC(C)C[C@H](NC(=O)Nc1ccccc1)C(=O)N(C)N(C)C#N [Compound 18a] | – | – | 0.112 ± 0.011 | – | – | – | R, Unc | Deg | 2 | 4 | 4 | 4 | – | – | – | – |
| CCCC[C@H](NC(=O)OC(C)(C)C)C(=O)NCC#N [Gü967] | – | – | – | – | – | – | – | – | 0 | 0 | 0 | 0 | – | – | – | 0.87 ± 0.1 |
| CC(C)(C)OC(=O)N[C@@H](Cc1cccs1)C(=O)NCC#N [Gü969] | – | – | – | – | – | – | – | – | 0 | 0 | 0 | 0 | – | – | – | 0.62 ± 0.05 |
| CC(C)(C)OC(=O)N[C@@H](Cc1ccc(-c2ccccc2)cc1)C(=O)NCC#N [Gü1124] | – | – | – | – | – | – | – | – | 0 | 0 | 0 | 0 | – | – | – | 0.27 ± 0.05 |
| N#CCNC(=O)[C@H](Cc1ccccc1)NC(=O)c1ccc(-c2ccccc2)cc1 [Gü1136] | – | – | – | – | – | – | – | – | 0 | 0 | 0 | 0 | – | – | – | 0.053 ± 0.012 |
| N#CCNC(=O)[C@H](Cc1ccc(O)cc1)NC(=O)OCc1ccccc1 [Gü2031] | – | – | – | – | – | – | – | – | 0 | 0 | 0 | 0 | – | – | – | 0.76 ± 0.22 |
| CC(C)C[C@H](NC(=O)c1ccc(-c2ccccc2)cc1)C(=O)NCC#N [Gü2420] | – | – | – | – | – | – | – | R, Dark | 0 | 2 | 2 | 2 | – | R, Dark | R, Dark | 0.056 ± 0.013 |
| N#CCNC(=O)[C@H](CC1CCCCC1)NC(=O)c1ccc(-c2noc(-c3cccs3)n2)cc1 [Gü2421] | – | – | – | – | – | – | R, S | R, S | 2 | 2 | 3 | 3 | – | R, S, Dark | R, S, Dark | 0.012 ± 0.004 |
